Test results taken from PMC7491426 (Frontiers in Chemistry, 2020).
“And” between values parts separate entries of the source, which are not always exact repeats. Equal entries are not always repeated. Where two headings read alike, the source gives them in different places.

Legend:
[1] = target: T1, HNE (human neutrophil elastase) (Homo sapiens, UniProt P08246); experiment: HNE inhibition assay (fluorogenic substrate cleavage); format: biochemical
T1 construct: purchased Calbiochem
T1 sequence (P08246 30-267): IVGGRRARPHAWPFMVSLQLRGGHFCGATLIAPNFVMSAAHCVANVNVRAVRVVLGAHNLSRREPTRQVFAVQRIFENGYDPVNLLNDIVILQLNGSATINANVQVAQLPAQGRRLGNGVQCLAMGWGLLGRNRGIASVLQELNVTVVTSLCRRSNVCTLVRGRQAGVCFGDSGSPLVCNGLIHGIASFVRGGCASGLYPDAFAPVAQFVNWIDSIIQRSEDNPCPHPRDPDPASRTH
Description: Compounds were dissolved in 100% DMSO at 5 mM stock concentrations. […] HNE inhibition assays were performed in black flat-bottom 96-well microtiter plates. Briefly, a solution containing 200 mM Tris–HCl, pH 7.5, 0.01% bovine serum albumin, 0.05% Tween®-20, and 20 mU/mL of HNE (Calbiochem) was added to wells containing different concentrations of each compound. The reaction was initiated by addition of 25 μM elastase substrate (N-methylsuccinyl-Ala-Ala-Pro-Val-7-amino-4-methylcoumarin, Calbiochem) in a final reaction volume of 100 μL/well. Kinetic measurements were obtained every 30 s for 10 min at 25°C using a Fluoroskan Ascent FL fluorescence microplate reader (Thermo Electron, MA) with excitation and emission wavelengths of 355 and 460 nm, respectively. For all compounds tested, the concentration of inhibitor that caused 50% inhibition of the enzymatic reaction (IC50) was calculated by plotting % inhibition vs. logarithm of inhibitor concentration (at least six points).

[2] = Spontaneous hydrolysis (chemical stability) in aqueous phosphate buffer; format: physicochemical; details: for t1/2 for the spontaneous hydrolysis: 0.05 M phosphate buffer; for t1/2 for the spontaneous hydrolysis / half-life: pH 7.3, 25°C; for half-life: phosphate buffer, pH 7.3, 0.05 M phosphate buffer, read-out: t1/2 for the spontaneous hydrolysis (converted)
Description: Spontaneous hydrolysis of selected derivatives was evaluated at 25°C in 0.05 M phosphate buffer, pH 7.3. Kinetics of compound hydrolysis was monitored by measuring changes in absorbance spectra over time using a SpectraMax ABS Plus microplate spectrophotometer (Molecular Devices, Sunnyvale, CA). Absorbance (At) at the characteristic absorption maxima of each compound was monitored over time until no further absorbance decreases occurred (A∞). Using these measurements, we created semilogarithmic plots of log(At-A∞) vs. time, and k′ values were determined from the slopes of these plots. Half-conversion times were calculated using t1/2 = 0.693/k′.
Spontaneous hydrolysis rates of the inhibitors were measured in phosphate buffer at pH 7.3 and 25°C.

[3] = target: T1, HNE (human neutrophil elastase); experiment: Persistence of HNE inhibition over extended period of time (16 h); format: biochemical; details: monitored during 16 h in the presence of 10 μM inhibitor
Source text: The relatively high enzymatic stability of HNE allowed us to evaluate reversibility of the enzyme inhibition over time.

[4] = mean ± SD of three independent experiments, read-out: IC50 (HNE inhibitory activity)
[5] = restated in Table 5 beside docking geometry, read-out: IC50

SMILES | IC50 [1, 4] | IC50 [1, 5] [µM] | t1/2 for the spontaneous hydrolysis [2] [h] | half-life [2] [h] | Remaining HNE activity [3] [%] | melting point [°C] | Chemical stability in aqueous buffer ([2]; data not shown)
CCOC(=O)c1cn(S(=O)(=O)c2ccc(OC(=O)C(C)(C)C)cc2)c2ccccc12 [Compound 3a, Ethyl 1-{[4-(pivaloyloxy)phenyl]sulfonyl}-1H-indole-3-carboxylate] | < 0.1 µM and 0.03 µM | 0.03 | 9.6 | > 9 | 5.5 ± 1.8 | 118 to 121 | 
CCOC(=O)c1cn(S(=O)(=O)c2ccc(OC(=O)C(C)(C)C)cc2)c2ccc([N+](=O)[O-])cc12 [Compound 3b, Ethyl 5-nitro-1-{[4-(pivaloyloxy)pheny]sulfonyl}-1H-indole-3-carboxylate] | 0.025 ± 0.008 µM |  |  | 6.1 | 20.5 ± 1.7 | 170 to 173 | 
CC(C)(C)C(=O)Oc1ccc(S(=O)(=O)n2cc(C#N)c3ccccc32)cc1 [Compound 3c, 4-[(3-Cyano-1H-indol-1-yl)sulfonyl]phenyl pivalate] | < 0.1 µM and 0.049 µM |  | 14.4 | > 9 | 2.0 ± 0.4 | 133 to 136 | 
CC(C)(C)C(=O)Oc1ccc(S(=O)(=O)n2nc(C#N)c3ccccc32)cc1 [Compound 3d, 4-[(3-Cyano-1H-indazol-1-yl)sulfonyl]phenyl pivalate] | 0.076 ± 0.011 µM |  |  | 6.1 | 4.3 ± 0.3 | 155 to 158 | 
CC(C)(C)C(=O)Oc1ccc(S(=O)(=O)n2nc(C#N)c3cc([N+](=O)[O-])ccc32)cc1 [Compound 3e, 4-[(3-Cyano-5-nitro-1H-indazol-1-yl)sulfonyl]phenyl pivalate] | 0.093 ± 0.027 µM |  |  | 0.4 | 41.7 ± 3.2 | 183 to 186 | 
CCOC(=O)c1nn(S(=O)(=O)c2ccc(OC(=O)C(C)(C)C)cc2)c2ccccc12 [Compound 3f, Ethyl 1-{[4-(pivaloyloxy)phenyl]sulfonyl}-1H-indazole-3-carboxylate] | < 0.1 µM and 0.015 µM |  | 10.5 | > 9 | 5.9 ± 1.2 | 132 to 135 | 
CCOC(=O)c1nn(S(=O)(=O)c2ccc(OC(=O)C(C)(C)C)cc2)c2ccc([N+](=O)[O-])cc12 [Compound 3g, Ethyl 5-nitro-1-{[4-(pivaloyloxy)phenyl]sulfonyl}-1H-indazole-3-carboxylate] | 0.023 ± 0.01 µM |  |  | 1.8 | 20.1 ± 1.6 | 185 to 188 | 
CC(C)(C)C(=O)Oc1ccc(S(=O)(=O)n2cc(C#N)c3cccnc32)cc1 [Compound 3i, 4-[(3-Cyano-1H-pyrrolo[2,3-b]pyridin-1-yl]sulfonyl)phenyl pivalate] | 0.055 ± 0.012 µM |  |  | 1.8 | 2.6 ± 0.5 | 176 to 179 | 
Cc1noc(-c2cn(S(=O)(=O)c3ccc(OC(=O)C(C)(C)C)cc3)c3ncccc23)n1 [Compound 3j, 4-{[3-(3-Methyl-1,2,4-oxadiazol-5-yl)-1H-pyrrolo[2,3-b]pyridin-1-yl]sulfonyl}phenyl pivalate] | 0.043 ± 0.014 µM |  |  | 2.5 | 26.2 ± 3.4 | 164 to 167 | 
CC(C)(C)C(=O)Oc1ccc(S(=O)(=O)n2nc(C(F)(F)F)c3cccnc32)cc1 [Compound 3k, 4-{[3-(Trifluoromethyl)-1H-pyrazolo[3,4-b]pyridin-1-yl]sulfonyl}phenyl pivalate] | 0.135 ± 0.037 µM |  |  | 1.3 |  | 135 to 138 | 
CC(C)(C)C(=O)Oc1ccc(S(=O)(=O)n2nc(C#N)c3cccnc32)cc1 [Compound 3l, 4-[(3-Cyano-1H-pyrazolo[3,4-b]pyridin-1-yl)sulfonyl]phenyl pivalate] | 0.066 ± 0.009 µM |  |  | 3.5 | 4.5 ± 1.7 | 166 to 169 | 
Cc1cccc(C(=O)Nc2nn(S(=O)(=O)c3ccc(OC(=O)C(C)(C)C)cc3)c3ccccc23)c1 [Compound 4, 4-{[3-(3-Methylbenzamido)-1H-indazol-1-yl]sulfonyl}phenyl pivalate] | 0.062 ± 0.012 µM |  |  | 6.4 | 8.6 ± 1.7 |  | 
CCOC(=O)c1cn(C)c2ccc(NS(=O)(=O)c3ccc(OC(=O)C(C)(C)C)cc3)cc12 [Compound 7a, Ethyl 1-methyl-5-{[4-(pivaloyloxy)phenyl]sulfonamido}-1H-indole-3-carboxylate] | 0.233 ± 0.076 µM |  |  | 6.8 |  |  | 
CCOC(=O)c1cn(C(=O)c2cccc(C)c2)c2ccc(NS(=O)(=O)c3ccc(OC(=O)C(C)(C)C)cc3)cc12 [Compound 7b, Ethyl 1-(3-methylbenzoyl)-5-{[4-(pivaloyloxy)phenyl]sulfonamido}-1H-indole-3-carboxylate] | 5.2 ± 0.14 µM | 5.2 |  | 5.3 |  | 172 to 175 | 
Cn1nc(C#N)c2cc(NS(=O)(=O)c3ccc(OC(=O)C(C)(C)C)cc3)ccc21 [Compound 7c, 4-[N-(3-Cyano-1-methyl-1H-indazol-5-yl)sulfamoyl]phenyl pivalate] | 0.394 ± 0.038 µM |  |  | 1.5 |  | 162 to 165 | 
CCOC(=O)c1nn(C)c2ccc(NS(=O)(=O)c3ccc(OC(=O)C(C)(C)C)cc3)cc12 [Compound 7d, Ethyl 1-methyl-5-{[4-(pivaloyloxy)phenyl]sulfonamido}-1H-indazole-3-carboxylate] | < 0.1 µM and 0.086 µM | 0.086 | 16.5 | > 9 | 9.1 ± 2.5 | 130 to 133 | 
CCOC(=O)c1nn(C(=O)c2cccc(C)c2)c2ccc(NS(=O)(=O)c3ccc(OC(=O)C(C)(C)C)cc3)cc12 [Compound 7e, Ethyl 1-(3-methylbenzoyl)-5-{[4-(pivaloyloxy)phenyl]sulfonamido}-1H-indazole-3-carboxylate] | 0.46 ± 0.12 µM | 0.46 |  | 5.8 |  | 180 to 182 | 
CC(C)(C)C(=O)Oc1ccc(S(=O)(=O)n2ncc(=O)c3ccccc32)cc1 [Compound 9a, 4-[(4-Oxocinnolin-1(4H)-yl)sulfonyl]phenyl pivalate] | 0.019 ± 0.005 µM |  |  | 2.1 | 2.2 ± 0.1 | 116 to 119 | 
CC(C)(C)C(=O)Oc1ccc(S(=O)(=O)n2nc(C3CC3)c(=O)c3ccccc32)cc1 [Compound 9b, 4-[(3-Cyclopropyl-4-oxocinnolin-1(4H)-yl)sulfonyl]phenyl pivalate] | 0.078 ± 0.018 µM |  |  | 1.9 | 9.2 ± 2.5 | 121 to 123 | 
CC(C)(C)C(=O)Oc1ccc(S(=O)(=O)n2cc(-c3ccccc3)c(=O)o2)cc1 [Compound 11, 4-[(5-Oxo-4-phenylisoxazol-2(5H)-yl)sulfonyl]phenyl Pivalate] | 0.29 ± 0.04 µM |  |  |  |  | 166 to 168 | 
Cc1c(-c2ccccc2)c(=O)on1S(=O)(=O)c1ccc(OC(=O)C(C)(C)C)cc1 [G, reference compound] |  |  |  | 5.8 |  |  | excellent chemical stability in aqueous buffer
CC(C)(C)C(=O)Oc1ccc(S(=O)(=O)Nc2ccccc2C(=O)NCC(=O)O)cc1 [Sivelestat, reference compound] |  |  |  |  | 3.7 ± 0.1 |  | 
